ChEMBL document CHEMBL4428135, “Varying Chirality Across Nicotinic Acetylcholine Receptor Subtypes: Selective Binding of Quinuclidine Triazole Compounds” (ACS Med Chem Lett, 2016)
pKi: −log10 of the molar value. The source made the active and inactive calls. No cut-off for these calls is given here.

Tests used:
[1] = molecular target: T1, Neuronal acetylcholine receptor subunit alpha-7 (Homo sapiens, UniProt P36544); assay: Displacement of [3H]MLA from human alpha7 nAChR transfected in human SH-SY5Y cell membranes after 120 mins by liquid scintillation counting
[2] = species on record: Homo sapiens; assay: Selectivity index, reciprocal of ratio of Ki for alpha7 nAChR transfected in human SH-SY5Y cells to KI for human alpha4beta2 nAChR transfected in HEK293 cells; assay type: cell-based
[3] = molecular target: T2, Neuronal acetylcholine receptor; alpha3/beta4 (Homo sapiens, UniProt P30926+P32297); assay: Displacement of [3H]epibatidine from human alpha3beta4 nAChR transfected in HEK293 cell membranes after 120 mins by liquid scintillation counting
[4] = species on record: Homo sapiens; assay: Selectivity index, reciprocal of ratio of Ki for human alpha3beta4 nAChR transfected in HEK293 cells to Ki for human alpha4beta2 nAChR transfected in HEK293 cells; assay type: cell-based
[5] = molecular target: T3, Neuronal acetylcholine receptor; alpha4/beta2 (Homo sapiens, UniProt P17787+P43681); assay: Displacement of [3H]epibatidine from human alpha4beta2 nAChR transfected in HEK293 cell membranes after 120 mins by liquid scintillation counting
[6] = species on record: Homo sapiens; assay: Selectivity index, reciprocal of ratio of Ki for human alpha7 nAChR transfected in human SH-SY5Y cells to Ki for human alpha3beta4 nAChR transfected in HEK293 cells; assay type: cell-based
[7] = molecular target: T2, Neuronal acetylcholine receptor; alpha3/beta4; assay: Antagonist activity at human alpha3beta4 nAChR expressed in HEK293 cells assessed as rediution in epibatidine-induced intracellular calcium levels at 10 uM; assay type: cell-based
[8] = molecular target: Acetylcholine receptor subunit alpha (Homo sapiens) (UniProt P02708); assay: Displacement of [125I]alpha-bungarotoxin from human N-muscle type nAChR alpha1 expressed in human RD cells at 1 uM; assay type: cell-based
[9] = molecular target: Serotonin 3 (5-HT3) receptor (Homo sapiens) (UniProt P46098+A5X5Y0+O95264+Q70Z44+Q8WXA8); assay: Displacement of [3H]BRL-43694 from human recombinant 5-HT3 receptor expressed in CHO cells at 100 nM; assay type: cell-based
[10] = molecular target: T1, Neuronal acetylcholine receptor subunit alpha-7; assay: Agonist activity at human alpha7 nAChR expressed in human SH-SY5Y cells assessed as increase in intracellular calcium levels at 10 uM; assay type: cell-based
[11] = molecular target: T1, Neuronal acetylcholine receptor subunit alpha-7; assay: Binding affinity to alpha7 nAChR (unknown origin)
[12] = molecular target: T3, Neuronal acetylcholine receptor; alpha4/beta2; assay: Binding affinity to alpha4beta2 nAChR (unknown origin); assay type: protein-complex assay
[13] = molecular target: Neuronal acetylcholine receptor subunit alpha-7 (Rattus norvegicus, UniProt Q05941); assay: Displacement of [3H]MLA from alpha7 nAChR in rat brain membranes after 2 hrs; assay type: cell membranes
[14] = molecular target: T2, Neuronal acetylcholine receptor; alpha3/beta4; assay: Agonist activity at human alpha3beta4 nAChR expressed in HEK293 cells assessed as increase in intracellular calcium levels at 10 uM; assay type: cell-based
[15] = molecular target: T1, Neuronal acetylcholine receptor subunit alpha-7; assay: Displacement of [3H]A-585539 from alpha7 nAChR in human cerebral cortex membranes after 75 mins by scintillation counting; assay type: cell membranes
[16] = molecular target: Neuronal acetylcholine receptor; alpha4/beta2 (Rattus norvegicus, UniProt P09483+P12390); assay: Displacement of [3H]cytisine from alpha4beta2 nAChR in Sprague-Dawley rat brain membranes after 75 mins by scintillation counting; assay type: cell membranes
[17] = molecular target: T2, Neuronal acetylcholine receptor; alpha3/beta4; assay: Displacement of [3H] epibatidine from alpha3beta4 nAChR (unknown origin) expressed in HEK293 cells; assay type: cell-based
[18] = molecular target: T3, Neuronal acetylcholine receptor; alpha4/beta2; assay: Displacement of [3H] epibatidine from alpha4beta2 nAChR (unknown origin) expressed in HEK293 cells; assay type: cell-based
[19] = molecular target: T1, Neuronal acetylcholine receptor subunit alpha-7; assay: Displacement of [3H] epibatidine from alpha7 nAChR (unknown origin) expressed in HEK293 cells; assay type: cell-based
[20] = molecular target: T1, Neuronal acetylcholine receptor subunit alpha-7; assay: Displacement of [3H]MLA from human recombinant alpha7 nAChR expressed in HEKtsA201 cells after 1 hr by CNiFERs binding assay; assay type: cell-based
[21] = molecular target: T3, Neuronal acetylcholine receptor; alpha4/beta2; assay: Displacement of [3H]-(+/-)-epibatidine from human recombinant alpha4beta2 nAChR expressed in HEKtsA201 cells after 1 hr by CNiFERs binding assay; assay type: cell-based

Acetylcholine receptor subunit alpha (Homo sapiens), sequence (P02708 whole entry): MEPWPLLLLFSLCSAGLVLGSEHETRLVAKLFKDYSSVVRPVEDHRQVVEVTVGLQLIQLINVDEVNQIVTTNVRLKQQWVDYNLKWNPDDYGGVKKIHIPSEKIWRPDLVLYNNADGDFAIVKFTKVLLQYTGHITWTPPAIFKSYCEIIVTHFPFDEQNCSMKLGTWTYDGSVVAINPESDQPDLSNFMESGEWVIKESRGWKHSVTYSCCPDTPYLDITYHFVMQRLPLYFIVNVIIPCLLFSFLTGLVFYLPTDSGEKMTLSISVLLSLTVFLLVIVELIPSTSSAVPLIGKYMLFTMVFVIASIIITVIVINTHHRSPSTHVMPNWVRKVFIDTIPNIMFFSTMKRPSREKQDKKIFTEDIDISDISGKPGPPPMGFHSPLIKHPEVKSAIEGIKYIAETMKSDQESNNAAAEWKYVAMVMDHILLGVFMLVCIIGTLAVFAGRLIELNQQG
T3 sequence (P17787 whole entry): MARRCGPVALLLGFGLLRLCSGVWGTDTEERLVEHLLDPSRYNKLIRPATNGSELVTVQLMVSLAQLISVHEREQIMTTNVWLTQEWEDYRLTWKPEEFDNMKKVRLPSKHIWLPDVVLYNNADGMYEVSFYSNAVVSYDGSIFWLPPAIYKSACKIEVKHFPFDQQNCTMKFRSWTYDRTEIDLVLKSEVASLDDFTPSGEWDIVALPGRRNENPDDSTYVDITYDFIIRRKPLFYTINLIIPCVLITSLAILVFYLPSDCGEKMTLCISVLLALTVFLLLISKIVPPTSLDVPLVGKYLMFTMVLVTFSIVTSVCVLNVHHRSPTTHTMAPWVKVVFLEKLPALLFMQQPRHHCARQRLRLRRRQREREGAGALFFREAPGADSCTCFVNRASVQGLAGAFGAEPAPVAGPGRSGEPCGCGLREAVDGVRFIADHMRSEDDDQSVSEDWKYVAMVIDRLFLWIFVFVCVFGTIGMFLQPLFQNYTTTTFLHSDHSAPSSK
T3 sequence (P43681 whole entry): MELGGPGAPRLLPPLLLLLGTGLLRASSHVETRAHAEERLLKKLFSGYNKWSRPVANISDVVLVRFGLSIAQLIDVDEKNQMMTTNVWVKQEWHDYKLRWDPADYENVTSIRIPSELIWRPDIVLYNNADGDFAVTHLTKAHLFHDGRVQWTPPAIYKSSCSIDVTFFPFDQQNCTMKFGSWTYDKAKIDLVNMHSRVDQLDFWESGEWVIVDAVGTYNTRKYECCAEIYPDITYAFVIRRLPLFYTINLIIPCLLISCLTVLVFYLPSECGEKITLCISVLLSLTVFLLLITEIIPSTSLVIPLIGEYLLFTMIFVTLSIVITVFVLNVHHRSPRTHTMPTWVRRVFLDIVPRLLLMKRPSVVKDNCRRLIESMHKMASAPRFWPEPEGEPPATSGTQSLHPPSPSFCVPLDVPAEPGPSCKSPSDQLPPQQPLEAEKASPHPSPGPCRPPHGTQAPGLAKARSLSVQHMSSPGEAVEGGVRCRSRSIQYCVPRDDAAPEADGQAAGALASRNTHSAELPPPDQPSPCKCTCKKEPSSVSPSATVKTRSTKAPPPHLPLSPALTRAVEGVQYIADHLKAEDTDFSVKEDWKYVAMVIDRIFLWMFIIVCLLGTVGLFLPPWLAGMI
T2 sequence (P30926 whole entry): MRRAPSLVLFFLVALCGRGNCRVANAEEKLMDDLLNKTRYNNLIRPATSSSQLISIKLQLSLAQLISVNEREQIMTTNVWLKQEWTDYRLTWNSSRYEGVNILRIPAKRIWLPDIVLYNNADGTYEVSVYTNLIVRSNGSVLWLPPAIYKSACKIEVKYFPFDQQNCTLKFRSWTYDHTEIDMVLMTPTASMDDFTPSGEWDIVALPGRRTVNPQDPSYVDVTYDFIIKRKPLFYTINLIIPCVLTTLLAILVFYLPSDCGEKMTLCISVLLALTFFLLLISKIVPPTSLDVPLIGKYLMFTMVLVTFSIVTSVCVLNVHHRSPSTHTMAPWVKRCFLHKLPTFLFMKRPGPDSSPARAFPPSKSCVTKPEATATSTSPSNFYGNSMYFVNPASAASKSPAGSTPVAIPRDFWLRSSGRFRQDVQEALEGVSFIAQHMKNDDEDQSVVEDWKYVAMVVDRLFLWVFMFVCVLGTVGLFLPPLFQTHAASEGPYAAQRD
T2 sequence (P32297 whole entry): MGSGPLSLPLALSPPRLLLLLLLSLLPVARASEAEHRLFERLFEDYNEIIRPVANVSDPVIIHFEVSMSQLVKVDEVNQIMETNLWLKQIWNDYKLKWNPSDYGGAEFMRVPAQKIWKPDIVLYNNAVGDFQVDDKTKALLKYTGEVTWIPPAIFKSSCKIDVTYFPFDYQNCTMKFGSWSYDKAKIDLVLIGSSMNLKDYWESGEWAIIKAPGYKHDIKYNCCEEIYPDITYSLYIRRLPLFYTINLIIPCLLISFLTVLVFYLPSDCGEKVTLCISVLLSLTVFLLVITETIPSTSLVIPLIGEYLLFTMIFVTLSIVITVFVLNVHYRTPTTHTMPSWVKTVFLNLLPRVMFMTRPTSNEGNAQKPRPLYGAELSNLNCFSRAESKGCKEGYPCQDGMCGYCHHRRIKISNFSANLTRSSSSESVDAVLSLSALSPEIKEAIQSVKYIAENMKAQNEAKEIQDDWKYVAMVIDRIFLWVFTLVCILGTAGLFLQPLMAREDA
T1 sequence (P36544 whole entry): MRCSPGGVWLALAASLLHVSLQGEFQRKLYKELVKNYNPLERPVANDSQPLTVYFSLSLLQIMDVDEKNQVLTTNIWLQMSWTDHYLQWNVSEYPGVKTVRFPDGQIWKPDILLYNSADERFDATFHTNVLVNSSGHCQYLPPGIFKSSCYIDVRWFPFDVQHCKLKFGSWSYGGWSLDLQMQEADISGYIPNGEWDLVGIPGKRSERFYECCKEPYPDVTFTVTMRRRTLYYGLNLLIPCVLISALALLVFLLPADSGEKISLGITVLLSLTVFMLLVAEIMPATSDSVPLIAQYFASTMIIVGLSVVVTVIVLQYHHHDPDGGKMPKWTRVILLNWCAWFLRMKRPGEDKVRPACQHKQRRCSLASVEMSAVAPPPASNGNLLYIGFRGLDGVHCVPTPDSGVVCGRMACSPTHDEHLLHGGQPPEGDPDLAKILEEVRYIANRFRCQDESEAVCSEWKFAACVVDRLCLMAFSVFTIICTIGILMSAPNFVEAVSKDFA
Neuronal acetylcholine receptor subunit alpha-7 (Rattus norvegicus, UniProt Q05941), sequence (Q05941 whole entry): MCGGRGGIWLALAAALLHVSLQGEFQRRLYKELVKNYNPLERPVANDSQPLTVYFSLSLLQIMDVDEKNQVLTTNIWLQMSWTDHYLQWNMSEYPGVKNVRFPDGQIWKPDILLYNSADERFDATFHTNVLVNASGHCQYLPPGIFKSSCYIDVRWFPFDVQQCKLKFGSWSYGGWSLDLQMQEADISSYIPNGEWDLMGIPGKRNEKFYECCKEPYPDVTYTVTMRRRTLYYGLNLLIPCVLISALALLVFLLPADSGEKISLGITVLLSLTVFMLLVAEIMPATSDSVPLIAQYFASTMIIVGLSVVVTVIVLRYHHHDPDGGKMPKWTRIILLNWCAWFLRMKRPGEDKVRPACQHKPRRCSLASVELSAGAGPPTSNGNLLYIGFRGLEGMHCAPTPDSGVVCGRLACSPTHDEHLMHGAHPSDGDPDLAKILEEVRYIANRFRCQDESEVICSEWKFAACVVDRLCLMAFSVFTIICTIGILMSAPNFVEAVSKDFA
Neuronal acetylcholine receptor; alpha4/beta2 (Rattus norvegicus, UniProt P09483+P12390), sequence (P09483 whole entry): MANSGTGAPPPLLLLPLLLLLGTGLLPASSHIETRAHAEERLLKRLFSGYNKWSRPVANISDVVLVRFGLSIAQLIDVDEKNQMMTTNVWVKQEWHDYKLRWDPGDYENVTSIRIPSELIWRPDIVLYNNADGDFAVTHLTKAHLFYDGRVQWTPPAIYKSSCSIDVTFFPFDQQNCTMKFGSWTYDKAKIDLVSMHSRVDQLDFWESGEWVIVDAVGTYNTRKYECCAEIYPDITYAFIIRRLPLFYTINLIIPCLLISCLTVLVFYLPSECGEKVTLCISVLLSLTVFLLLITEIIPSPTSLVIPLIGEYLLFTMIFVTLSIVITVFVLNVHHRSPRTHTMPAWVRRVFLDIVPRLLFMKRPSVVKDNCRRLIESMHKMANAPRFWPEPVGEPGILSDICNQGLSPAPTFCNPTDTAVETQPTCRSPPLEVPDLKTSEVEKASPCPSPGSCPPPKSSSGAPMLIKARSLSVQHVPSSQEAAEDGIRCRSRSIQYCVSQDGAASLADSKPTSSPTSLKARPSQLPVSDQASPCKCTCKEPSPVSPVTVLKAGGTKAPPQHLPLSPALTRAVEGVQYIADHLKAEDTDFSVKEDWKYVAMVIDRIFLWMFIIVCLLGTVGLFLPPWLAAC
Neuronal acetylcholine receptor; alpha4/beta2 (Rattus norvegicus, UniProt P09483+P12390), sequence (P12390 whole entry): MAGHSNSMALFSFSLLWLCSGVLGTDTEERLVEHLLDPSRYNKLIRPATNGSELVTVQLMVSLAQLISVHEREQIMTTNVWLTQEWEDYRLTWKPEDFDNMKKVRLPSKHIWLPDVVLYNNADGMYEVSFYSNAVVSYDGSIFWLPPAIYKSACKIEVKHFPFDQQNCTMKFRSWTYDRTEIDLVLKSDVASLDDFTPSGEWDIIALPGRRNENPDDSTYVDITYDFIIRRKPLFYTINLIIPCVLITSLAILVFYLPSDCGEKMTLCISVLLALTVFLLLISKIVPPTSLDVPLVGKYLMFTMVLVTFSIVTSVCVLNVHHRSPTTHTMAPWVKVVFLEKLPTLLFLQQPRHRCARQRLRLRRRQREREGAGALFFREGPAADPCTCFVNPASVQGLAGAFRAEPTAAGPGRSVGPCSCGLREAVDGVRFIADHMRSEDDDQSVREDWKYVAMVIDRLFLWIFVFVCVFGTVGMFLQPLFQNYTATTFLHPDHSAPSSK

Row | SMILES | pKi [1] | Ratio [2] | pKi [3] | Ratio [4] | pKi [5] | also measured
1 | FCCOc1cccc(-c2cn(C3CN4CCC3CC4)nn2)c1 (racemic) | 7.01 | 20 | 7.68 | 94 | 5.71 | –
2 | FCCCOc1cccc(-c2cn(C3CN4CCC3CC4)nn2)c1 (racemic) | 7.13 | 52 | 7.35 | 88 | 5.41 | –
3 | Fc1ccc(COc2cccc(-c3cn([C@H]4CN5CCC4CC5)nn3)c2)cc1 | 7.48 | 193 | 5.96 | 5.9 | 5.19 | Ratio [6]: 33
4 | Fc1cccc(-c2cn(C3CN4CCC3CC4)nn2)c1 (racemic) | 6.88 | 5.6 | 8.28 | 143 | 6.13 | –
5 | Fc1cccc(-c2cn([C@@H]3CN4CCC3CC4)nn2)c1 | 6.18 | – | 8.65 | 231 | 6.28 | inhibition [7]: Active; inhibition [8]: 2 to 12%; inhibition [9]: inactive; Activity [10]: Active
6 | Fc1ccc(-c2cn(C3CN4CCC3CC4)nn2)cc1 (racemic) | 7.14 | 6.2 | 8.07 | 53 | 6.35 | –
7 | Fc1ccc(COc2cccc(-c3cn([C@@H]4CN5CCC4CC5)nn3)c2)cc1 | 6.83 | 3.6 | 8.14 | 75 | 6.27 | inhibition [8]: 2 to 12%; inhibition [9]: Active
8 | FCCOc1cccc(-c2cn([C@@H]3CN4CCC3CC4)nn2)c1 | 7.13 | 17 | 7.93 | 107 | 5.90 | –
9 | CN1C2CCCC1CC(Nc1ccccc1Br)C2 (configuration not stated) | – | – | – | – | – | pKi [11]: 6.66; pKi [12]: 6.32
10 | O=C(N[C@H]1CN2CCC1CC2)c1c[nH]c2ccccc12 | – | – | – | – | – | pKi [13]: 8.22
11 | c1ccc(COc2cccc(-c3cn([C@H]4CN5CCC4CC5)nn3)c2)cc1 | 7.65 | 225 | 6.20 | 8 | 5.30 | Ratio [6]: 28
12 | Fc1cccc(-c2cn([C@H]3CN4CCC3CC4)nn2)c1 | 6.93 | 44 | 6.44 | 14 | 5.28 | Activity [14]: Active; Activity [10]: Active; Ratio [6]: 3.1
13 | Oc1ccc(-c2cn([C@H]3CN4CCC3CC4)nn2)cc1 | 7.96 | 678 | 6.86 | 54 | 5.13 | Ratio [6]: 12.7
14 | c1ccc(COc2cccc(-c3cn([C@@H]4CN5CCC4CC5)nn3)c2)cc1 | 6.55 | 1.5 | 8.18 | 62 | 6.38 | inhibition [8]: 2 to 12%; inhibition [9]: inactive
15 | Fc1ccc(-c2cn([C@@H]3CN4CCC3CC4)nn2)cc1 | 6.76 | 3 | 8.51 | 167 | 6.29 | inhibition [8]: 2 to 12%; Activity [14]: Active; inhibition [9]: inactive; Activity [10]: Active
16 | Fc1ccc(-c2cn([C@H]3CN4CCC3CC4)nn2)cc1 | 7.14 | 143 | 6.00 | 10 | 4.98 | inhibition [7]: Active; Activity [10]: Active; Ratio [6]: 14
17 | c1cc2cc(-c3ccc(O[C@H]4CN5CCC4CC5)nn3)ccc2[nH]1 [ABT-107] | – | – | – | – | – | pKi [15]: 9.66; pKi [16]: 5.40
18 | Oc1ccc(-c2cn([C@@H]3CN4CCC3CC4)nn2)cc1 | 7.53 | 16 | 8.61 | 186 | 6.34 | –
19 | FCCCOc1cccc(-c2cn([C@@H]3CN4CCC3CC4)nn2)c1 | 7.01 | 20 | 7.71 | 102 | 5.70 | –
20 | FCCOc1cccc(-c2cn([C@H]3CN4CCC3CC4)nn2)c1 | 7.41 | 182 | 6.25 | 13 | 5.15 | Ratio [6]: 14
21 | FCCCOc1cccc(-c2cn([C@H]3CN4CCC3CC4)nn2)c1 | 7.21 | 145 | 5.79 | 5.5 | 5.05 | Ratio [6]: 26
22 | FC(F)(F)c1ccc2c(c1)[C@@H]1CNC[C@H]2C1 | – | – | – | – | – | pKi [17]: 7.68; pKi [18]: 7.68; pKi [19]: < 6.52
23 | Fc1ccc(COc2cccc(-c3cn(C4CN5CCC4CC5)nn3)c2)cc1 (racemic) | 6.90 | 8 | 7.86 | 73 | 5.99 | –
24 | c1ccc(COc2cccc(-c3cn(C4CN5CCC4CC5)nn3)c2)cc1 (racemic) | 7.04 | 7.3 | 8.12 | 88 | 6.18 | –
25 | Oc1ccc(-c2cn(C3CN4CCC3CC4)nn2)cc1 (racemic) | 8.02 | 65 | 8.46 | 182 | 6.20 | pKi [20]: 7.09; pKi [21]: < 5.00
